What all share (format): cell-based
For one test, the system named is MIA Paca-2. In words: Inhibition of cell proliferation, MIA Paca-2 (CCK-8). The settings on record: Homo sapiens, MIA Paca-2 cells, read-out: Inhibition activity on the proliferation of different cell lines MIA Paca-2 (IC50). As for the experimental part:
(§1) (1) MV-411 cells were cultured in the cell culture medium, and then well-growing cells were selected and inoculated in a 96-well plate at 80 μL/well, with 2×10^4 cells/well. The plate was incubated overnight in a 5% CO2 cell incubator at 37° C.
(§2) (2) 10 mM storage solution of each drug was prepared using dimethylsulfoxide (DMSO). The stock solution was diluted in a ratio of 1:3 with DMSO before use, and then the solution was serially diluted in a ratio of 1:3, to obtain 9 gradient concentrations. Each concentration was further diluted with the medium in a ratio of 1:200 (to ensure that the DMSO concentration in the culture system was 0.1%). Two wells were set for each concentration. 20 μL of each compound solution was added to the cell culture well (with a final concentration of 10 μM, 3.3 μM, 1.1 μM . . . ). The plate was gently shaken and mixed. Additionally, 3 negative control wells (only containing cells) and 3 blank control wells (only containing the medium) were included (6 wells were each added with 20 μL of DMSO diluted with the medium in a ratio of 1:200).
(§3) (1) After 5 days of cultivation, 10 μL of CCK-8 was added to each well, and then the plate was further cultured for 3 h at 37° C. in a 5% CO2 cell incubator.
(§4) (2) The absorbance (OD value) was measured at 450 nm with a multifunctional microplate reader. (3) The data were analyzed using the Dose-response-inhibition equation in GraphPad Prism8 software to obtain the IC50 value.
(§5) Using a similar method, the IC50 value (nM) for the inhibitory activity of the compound according to the present invention against different cell lines was obtained, and the results are shown in Table 3 (++++: IC50>5 μM; +++: 1 μM<IC50<5 μM; ++: IC50<1 μM).

The next test deals with NCI-H358. Description: Inhibition of cell proliferation, NCI-H358 (CCK-8). The settings on record: Homo sapiens, NCI-H358 cells, read-out: Inhibition activity on the proliferation of different cell lines NCI-H358 (IC50). As for the experimental part: as §1, §2, §3, §4, §5
The target of test [1] is T1, SHP2 protein (Homo sapiens, UniProt Q06124).
T1 sequence (Q06124 1-593): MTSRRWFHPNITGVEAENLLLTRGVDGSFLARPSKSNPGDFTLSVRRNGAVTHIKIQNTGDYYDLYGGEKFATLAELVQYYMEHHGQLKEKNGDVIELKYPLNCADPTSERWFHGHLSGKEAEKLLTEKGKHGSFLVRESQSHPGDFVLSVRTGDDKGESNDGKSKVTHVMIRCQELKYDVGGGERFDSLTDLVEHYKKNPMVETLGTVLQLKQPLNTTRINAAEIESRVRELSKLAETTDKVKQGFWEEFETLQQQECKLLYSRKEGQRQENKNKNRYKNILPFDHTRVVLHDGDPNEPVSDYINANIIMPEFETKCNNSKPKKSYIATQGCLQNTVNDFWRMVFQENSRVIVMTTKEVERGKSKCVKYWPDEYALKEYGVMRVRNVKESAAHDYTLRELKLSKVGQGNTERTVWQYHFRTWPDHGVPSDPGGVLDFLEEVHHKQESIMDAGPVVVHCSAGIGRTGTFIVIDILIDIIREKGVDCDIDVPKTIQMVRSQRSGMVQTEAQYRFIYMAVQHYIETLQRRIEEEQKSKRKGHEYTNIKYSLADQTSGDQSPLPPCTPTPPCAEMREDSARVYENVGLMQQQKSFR
In words: Degradation activity on SHP2 protein in MV-411 cells (Western blot, DC50). The settings on record: MV411 cells, 24 hours, read-out: Degradation activity for differenct cell lines MV411 (DC50). Also noted: endogenous in cells. The procedure, abridged:
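MV-411 cells (1×10^6 cells/well, IMDM + 10% FBS) were treated 24 h with compound at 0.1-100 nM final, 0.1% DMSO, duplicates. SHP2 measured by Western blot against GAPDH, band density normalised to DMSO control; DC50 from dose-response fit.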
(Immunoblotting shows a protein as a band on a membrane.)

For test [2], the target named is T1, SHP2 protein. Description: Degradation activity on SHP2 protein in NCI-H358 cells (Western blot, DC50). The settings on record: read-out: Degradation activity for differenct cell lines NCI-H358 (DC50). Also noted: endogenous in cells. The method, boiled down:
(§6)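 Cells were treated 24 h at 37 °C with compound (0.1–100 nM final, 0.1% DMSO). SHP2 was measured by Western blot with GAPDH as loading control, densitometry normalized to DMSO (100%). DC50, the concentration giving 50% degradation, came from a dose-response fit.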

Test [3] has as its target T1, SHP2 protein. Description: Degradation activity on SHP2 protein in MIA Paca-2 cells (Western blot, DC50). Also on record: endogenous in cells; host or cells: MIA Paca-2 cells. The settings on record: read-out: Degradation activity for differenct cell lines MIA Paca-2 (DC50). The procedure, abridged:
as §6

In the next test the test system is MV-411 cell line. Description: Inhibition of cell proliferation, MV-411 (CCK-8). The settings on record: Homo sapiens, MV4-11, 120 h, MV411 cells, 5 days, read-out: Inhibition activity on the proliferation of different cell lines MV411 (IC50). As for the experimental part: • MV-411 cell line (COBIER, CBP-60522) • FBS (GEMINI, Cat. No. 900-108) • 0.01M PBS (Biosharp, Cat. No. 162262) • IMDM (Hyclone, Cat. No. SH30228.01) • Penicillin-Streptomycin (Gibco, Cat. No. 15140122) • DMSO (Sigma, Cat. No. D5879) • Cell counting kit-8 (Signalway Antibody, Cat. No. CP002) • Centrifuge Tube, 15 ml (Excell Bio, Cat. No. CS015-0001) • Cell Culture Dish, (WHB, Cat. No. CS016-0128) • 96-well cell culture cluster (Corning, Cat. No. 3599)
• (1) Cell culture medium: IMDM medium+10% FBS+1% Pen Strep; • (2) PBS buffer: PBS powder was dissolved in 2 L of ultrapure water and sterilized;
as §1, §2, §3, §4

The subject of another test is NCI-H1975. Description: Inhibition of cell proliferation, NCI-H1975 (CCK-8). The settings on record: Homo sapiens, NCI-H1975 cells, read-out: Inhibition activity on the proliferation of different cell lines NCI-H1975 (IC50). The procedure:
as §1, §2, §3, §4, §5

A further test has as its system KYSE 520. In words: Inhibition of cell proliferation, KYSE 520 (CCK-8). The settings on record: Homo sapiens, KYSE 520 cells, read-out: Inhibition activity on the proliferation of different cell lines KYSE 520 (IC50). As for the experimental part:
as §1, §2, §3, §4, §5

Counter-ions that a name gives are not always drawn.

As for `CC1(N)CCN(c2cnc(Sc3cccc(NC(=O)CCCCCCCO[C@H]4CCN(Cc5ccc(COc6cccc7c6CN(C6CCC(=O)NC6=O)C7=O)cc5)C4)c3)cn2)CC1` (stereo partly shown) [Compound 96], the IC50 in the test on MIA Paca-2 and in the test with NCI-H358 was less than 1 µM throughout. The DC50 at SHP2 protein [1] is less than 0.1 µM.
Consider `CC1(N)CCN(c2cnc(Sc3cccc(NC(=O)CCCCCCN4CC5(CCN(c6ccc(C(=O)NCc7ccc8c(c7)CN(C7CCC(=O)NC7=O)C8=O)nn6)C5)C4)c3)cn2)CC1` (stereo not shown) [Compound 110], for which the DC50 was 0.1 to 1 µM on SHP2 protein [2], less than 0.1 µM on SHP2 protein [1] and 0.1 to 1 µM at SHP2 protein [3]. Also, the IC50 with MIA Paca-2 and with NCI-H358 was greater than 5 µM each time.
As for `O=C1CCC(N2Cc3cc(CNC(=O)c4ccc(N5CCC6(CN(CCC(=O)Nc7cccc(Sc8cnc(N9CCC%10(CCNC%10)CC9)cn8)c7)C6)C5)nn4)ccc3C2=O)C(=O)N1` (stereo not shown) [Compound 111], the IC50 was 1 to 5 µM in the test with MIA Paca-2, less than 1 µM in the test on MV-411 cell line and 1 to 5 µM in the test on NCI-H358. The DC50 on SHP2 protein [1] was greater than 1 µM.
On to `CC1CN(c2ccc(C(=O)NCc3ccc4c(c3)CN(C3CCC(=O)NC3=O)C4=O)nn2)CC(C)N1CCCCCCCCC(=O)Nc1cccc(Sc2cnc(N3CCC(C)(N)CC3)cn2)c1` (stereo not shown) [Compound 138], for which the DC50 at SHP2 protein [2], on SHP2 protein [1] and on SHP2 protein [3] was less than 0.1 µM each time. Also, the IC50 with MV-411 cell line was less than 1 µM.
`CN(Cc1ccc2c(c1)CN(C1CCC(=O)NC1=O)C2=O)C(=O)c1ccc(N2CCN(CCCCCCCCC(=O)Nc3cccc(Sc4cnc(N5CCC(C)(N)CC5)cn4)c3)C(C(F)(F)F)C2)nn1` (stereo not shown) [Compound 175]: the IC50 in the test on MIA Paca-2 lay within 1 to 5 µM. For the same compound, the DC50 at SHP2 protein [1] is less than 0.1 µM.
As to `CC1(N)CCN(c2cnc(Sc3cccc(NC(=O)CCCCCCN4CC5(CCN(c6ncc(C(=O)NCc7ccc8c(c7)CN(C7CCC(=O)NC7=O)C8=O)cc6Cl)C5)C4)c3)cn2)CC1` (stereo not shown) [Compound 181], the DC50 at SHP2 protein [2], on SHP2 protein [1] and at SHP2 protein [3] was less than 0.1 µM in each case. Also, the IC50 in the test with MIA Paca-2 was 1 to 5 µM.
Turning to `CC1(N)CCN(c2cnc(Sc3cccc(NC(=O)CCCCCCN4CC5(CCN(c6ccc(C(=O)NCc7ccc8c(c7)CN(C7CCC(=O)NC7=O)C8=O)nc6Cl)C5)C4)c3)cn2)CC1` (stereo not shown) [Compound 200], the DC50 at SHP2 protein [2], on SHP2 protein [1] and on SHP2 protein [3] was less than 0.1 µM in each case.
Take `CC1(N)CCN(c2cnc(Sc3cccc(NC(=O)CCCCCCN4CC5(CC=C(c6ccc(C(=O)NCc7ccc8c(c7)CN(C7CCC(=O)NC7=O)C8=O)nn6)CC5)C4)c3)cn2)CC1` (stereo not shown) [Compound 207]: the half-maximal degradation concentration (DC50) at SHP2 protein [2], on SHP2 protein [1] and at SHP2 protein [3] was less than 0.1 µM each time.
Regarding `CC1(N)CCN(c2cnc(Sc3cccc(NC(=O)c4ccc(N5CCC(N6CC=C(c7ccc(C(=O)NCc8ccc9c(c8)CN(C8CCC(=O)NC8=O)C9=O)nc7)CC6)C5)cc4)c3)cn2)CC1` (stereo not shown) [Compound 403], the IC50 with NCI-H1975 was 1 to 5 µM. Besides, the DC50 on SHP2 protein [3] is less than 0.1 µM.
On to `CC1(N)CCN(c2cnc(Sc3cccc(NC(=O)c4ccc(N5CCC(N6CC=C(c7cnc(C(=O)NCc8ccc9c(c8)CN(C8CCC(=O)NC8=O)C9=O)c(F)c7)CC6)CC5)c(F)c4)c3)cn2)CC1` (stereo not shown) [Compound 414], for which the results for the IC50 with MV-411 cell line and in the test on KYSE 520 were greater than 5 µM and 1 to 5 µM, respectively. Besides, on SHP2 protein [3], the DC50 was less than 0.1 µM.
With `Cc1cc(N2CCC(N3CC=C(c4ccc(C(=O)NCc5ccc6c(c5)CN(C5CCC(=O)NC5=O)C6=O)nc4)CC3)CC2)ccc1C(=O)Nc1cccc(Sc2cnc(N3CCC(C)(N)CC3)cn2)c1` (stereo not shown) [Compound 421], the DC50 at SHP2 protein [2] and on SHP2 protein [3] was less than 0.1 µM each time. For the same compound, the IC50 in the test with MV-411 cell line was less than 1 µM; in the test on KYSE 520, 1 to 5 µM.
As for `Cc1cc(C(=O)Nc2cccc(Sc3cnc(N4CCC(C)(N)CC4)cn3)c2)ccc1N1CCC(N2CC=C(c3ccc(C(=O)NCc4ccc5c(c4)CN(C4CCC(=O)NC4=O)C5=O)nc3)CC2)CC1` (stereo not shown) [Compound 422], the DC50 on SHP2 protein [2] and at SHP2 protein [3] was less than 0.1 µM in each case. For the same compound, the results for the IC50 with MV-411 cell line and in the test with KYSE 520 were 1 to 5 µM and greater than 5 µM, respectively.
For the compound `C[C@@H]1OCC2(CCN(c3cnc(Sc4cccc(NC(=O)c5ccc(N6CCC(N7CC=C(c8ccc(C(=O)NCc9ccc%10c(c9)CN(C9CCC(=O)NC9=O)C%10=O)c(F)c8)CC7)CC6)c(F)c5)c4)cn3)CC2)[C@@H]1N` (stereo partly shown) [Compound 482], the IC50 with NCI-H1975 was less than 1 µM. Moreover, the 50% degradation concentration (DC50) on SHP2 protein [3] is less than 0.1 µM.
As for `C[C@@H]1OCC2(CCN(c3cnc(Sc4cccc(NC(=O)c5ccc(N6CCC(N7CCN(c8ccc(C(=O)NCc9ccc%10c(c9)CN(C9CCC(=O)NC9=O)C%10=O)c(F)c8)CC7)CC6)cc5)c4)cn3)CC2)[C@@H]1N` (stereo partly shown) [Compound 500], the IC50 with MV-411 cell line was less than 1 µM; in the test on KYSE 520, 1 to 5 µM. Further, the DC50 at SHP2 protein [3] is greater than 1 µM.
Regarding `C[C@@H]1OCC2(CCN(c3cnc(Sc4cccc(NC(=O)c5ccc(N6CCC(N7CCN(c8ccc(C(=O)NCc9ccc%10c(c9)CN(C9CCC(=O)NC9=O)C%10=O)cc8F)CC7)CC6)cc5)c4)cn3)CC2)[C@@H]1N` (stereo partly shown) [Compound 514], the IC50 with MV-411 cell line was less than 1 µM; with KYSE 520, 1 to 5 µM. In addition, the 50% degradation concentration (DC50) on SHP2 protein [3] was greater than 1 µM.
Turning to `C[C@@H]1OCC2(CCN(c3cnc(Sc4cccc(NC(=O)c5ccc(N6CCC(N7CC=C(c8ccc(C(=O)NCc9ccc%10c(c9)CN(C9CCC(=O)NC9=O)C%10=O)nn8)CC7)CC6)c(F)c5)c4)cn3)CC2)[C@@H]1N` (stereo partly drawn) [Compound 519, N-{[2-(2,6-oxohexahydropyridine-3-yl)-1-oxo-2,3-dihydro-1H-isoindol-5-yl]methyl}-6-(1-{1-[2-fluoro-4-({[3-({5-[(3S,4S)-4-amino-3-methyl-8-aza-2-oxaspiro[4.5]decan-8-yl]pyrazin-2-yl}thio)phenyl]amino}carbonyl)phenyl]hexahydropyridine-4-yl}-1,2,3,6-tetrahydropyridin-4-yl)-1,2-diazacyclohexane-3-formamide hydrochloride], the IC50 in the test with MV-411 cell line was less than 1 µM; in the test on KYSE 520 it was 1 to 5 µM. Besides, the DC50 at SHP2 protein [3] is less than 0.1 µM.

The term DC50 denotes the midpoint of the concentration-degradation curve.
